The source of these data is patent US8883833B2, “Substituted benzoazole PDE4 inhibitors for treating inflammatory, cardiovascular and CNS disorders” (Decode Genetics EHF, priority 2007, dated 2014).

The target in one assay is h4B1 (Homo sapiens, UniProt Q07343). Description: In-vitro assay for PDE4 enzymes, real-time enzyme-coupled spectrophotometric assay (Table 3). The format is biochemical. The procedure:
(§1) In-vitro assay for PDE4 enzymes. The in-vitro activity of PDE4 enzymes and the in-vitro potency of therapeutic agents described in the present invention was measured using a real-time, enzyme-coupled spectrophotometric assay. By using three different coupling enzymes, the product of the PDE4 reaction is coupled to the oxidation of the reduced form β-nicotinamide adenine dinucleotide (NADH), which dissipation can be monitored spectrophotmetrically at […]. Assay description. Buffer A containing 50 mM Tris, pH 8.0, 16 mM MgCl2 and 80 mM KCl is prepared and stored at room temperature. Buffer B containing 50 mM Tris, pH 8.0 is prepared and stored at toom temperature. Stock solutions of the following reagents are prepared in Buffer B and stored at −20° C.: Adenosine-5′-triphosphate (ATP), cyclic adenosine-5′-monophosphate (cAMP), phosphoenolpyruvate (PEP) and NADH. An assay mix is prepared by mixing Buffer A, […] (TCEP), ATP, PEP, NADH, myokinase (MK), pyruvate kinase (PK), lactate dehydroganese (LDH) and PDE4 to a final volume of 20 mL, which is enough for a single 96-well assay plate. Assay mix (180 μL) and test article (10 μL) in 1:1 DMSO/H2O mixture is pre-incubated at room temperature for 10 min. The enzymatic reaction is initiated by addition of cAMP (10 μL). Final concentration of all components in the assay (200 μL/well) are as follows: 10 mM MgCl2, 50 mM KCl, 5 mM TCEP, 2.5% DMSO, 0.4 mM NADH, 1 mM PEP, 0.04 mM ATP, 5 units MK, 1 unit PK, 1 unit LDH and appropriate amount of PDE4. Reaction progress curves are monitored in a plate reader capable of measuring light absorbance at 340 nm. A decrease in light absorbance at 340 nm is due to oxidation of NADH. Positive controls containing no test article and negative controls containing no test article and no cAMP are included on every assay plate. Reaction rates are determined from the slopes of the linear portions of the progress curves. All data is percent normalized with respect to controls and presented as percent inhibition.

A further assay has as its target h4D7 (Homo sapiens, UniProt Q08499). The description is as above. It counts as biochemical. The procedure:
as §1

Sequence of h4B1 (Q07343 whole entry): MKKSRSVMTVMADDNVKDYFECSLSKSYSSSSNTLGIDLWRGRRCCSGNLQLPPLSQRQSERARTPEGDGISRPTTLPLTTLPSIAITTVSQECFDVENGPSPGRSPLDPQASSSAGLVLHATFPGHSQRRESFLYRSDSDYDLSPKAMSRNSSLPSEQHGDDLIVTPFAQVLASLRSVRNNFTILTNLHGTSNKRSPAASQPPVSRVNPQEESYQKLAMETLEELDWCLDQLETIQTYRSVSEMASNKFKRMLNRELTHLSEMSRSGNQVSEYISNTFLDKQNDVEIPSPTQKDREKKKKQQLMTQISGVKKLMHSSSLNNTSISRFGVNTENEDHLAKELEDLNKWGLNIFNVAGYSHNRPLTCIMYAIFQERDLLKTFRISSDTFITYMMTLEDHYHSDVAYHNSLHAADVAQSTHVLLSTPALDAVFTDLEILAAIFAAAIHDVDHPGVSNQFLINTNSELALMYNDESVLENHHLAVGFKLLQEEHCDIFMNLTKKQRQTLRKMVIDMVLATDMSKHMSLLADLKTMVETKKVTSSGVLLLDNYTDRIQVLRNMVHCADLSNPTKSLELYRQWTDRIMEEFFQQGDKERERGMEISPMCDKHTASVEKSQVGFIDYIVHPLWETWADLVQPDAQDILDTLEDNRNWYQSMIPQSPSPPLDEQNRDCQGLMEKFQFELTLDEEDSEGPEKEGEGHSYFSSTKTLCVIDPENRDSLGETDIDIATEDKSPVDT
Sequence of h4D7 (Q08499 1-748 isoform Q08499-11): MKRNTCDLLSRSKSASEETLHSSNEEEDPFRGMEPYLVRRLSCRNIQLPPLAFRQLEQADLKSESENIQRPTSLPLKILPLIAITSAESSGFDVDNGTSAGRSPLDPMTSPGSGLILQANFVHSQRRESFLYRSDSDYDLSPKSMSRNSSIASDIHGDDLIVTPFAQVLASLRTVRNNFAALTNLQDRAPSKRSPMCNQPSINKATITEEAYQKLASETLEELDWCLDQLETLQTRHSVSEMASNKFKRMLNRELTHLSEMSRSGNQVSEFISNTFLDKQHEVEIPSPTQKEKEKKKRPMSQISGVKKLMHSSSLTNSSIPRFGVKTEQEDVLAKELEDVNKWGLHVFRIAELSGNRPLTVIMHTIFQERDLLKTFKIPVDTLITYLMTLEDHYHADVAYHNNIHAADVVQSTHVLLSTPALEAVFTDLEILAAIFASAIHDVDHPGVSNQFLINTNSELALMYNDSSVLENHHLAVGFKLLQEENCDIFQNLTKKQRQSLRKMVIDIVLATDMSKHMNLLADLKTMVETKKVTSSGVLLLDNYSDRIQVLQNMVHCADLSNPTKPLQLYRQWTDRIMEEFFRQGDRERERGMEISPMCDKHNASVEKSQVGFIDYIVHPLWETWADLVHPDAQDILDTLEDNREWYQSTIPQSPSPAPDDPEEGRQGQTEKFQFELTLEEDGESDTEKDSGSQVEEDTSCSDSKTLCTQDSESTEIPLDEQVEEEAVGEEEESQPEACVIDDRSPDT

As to `Nc1nc2c(-c3ccc4c(c3)OCO4)cc(Cc3ccc(F)cc3)cc2s1` [Example 4, 4-Benzo[1,3]dioxol-5-yl-6-(4-fluoro-benzyl)-benzothiazol-2-ylamine], the IC50 was 1 to 10 µM against h4B1 and less than 1 µM on h4D7.

In the case of `Cn1nccc1C(O)c1cc(-c2ccc3c(c2)OCO3)c2nc(N)sc2c1` (stereo not shown) [Example 6, (2-Amino-4-benzo[1,3]dioxol-5-yl-benzothiazol-6-yl)-(2-methyl-2H-pyrazol-3-yl)-methanol], the IC50 was in the range of 10 to 20 µM against h4B1 and 1 to 10 µM against h4D7.

For `CC(=O)c1cccc(-c2cc(Cn3cccn3)cc3sc(N)nc23)c1` [Example 12, 1-[3-(2-Amino-6-pyrazol-1-ylmethyl-benzothiazol-4-yl)-phenyl]-ethanone], the 50% inhibitory concentration (IC50) is 1 to 10 µM on h4B1 and less than 1 µM on h4D7.

`CCNC(=O)Nc1ccc(Cc2cc3scnc3c(-c3cccc(Cl)c3)c2F)cn1` [Example 33, 1-[5-[4-(3-chloro-phenyl)-5-fluoro-benzothiazol-6-ylmethyl]-pyridin-2-yl]-3-ethyl-urea]: the IC50 against h4B1 and against h4D7 was less than 1 µM throughout.

`COc1ccc(Cc2cc3scnc3c(-c3cccc(Cl)c3)c2F)cn1` [Example 38, 4-(3-chloro-phenyl)-5-fluoro-6-(6-methoxy-pyridin-3-ylmethyl)-benzothiazole]: the results for the half-maximal inhibitory concentration (IC50) at h4B1 and against h4D7 were 1 to 10 µM and less than 1 µM, respectively.

As to `Nc1nc2c(-c3cccc(C(F)(F)F)c3)cc(Cc3ccc(F)cc3)cc2s1` [Example 7, 6-(4-Fluoro-benzyl)-4-(3-trifluoromethyl-phenyl)-benzothiazol-2-ylamine], the concentration for half-maximal inhibition (IC50) at h4B1 was 1 to 10 µM; at h4D7, less than 1 µM.

Regarding `CC(=O)N1CCN(Cc2cc3scnc3c(-c3cccc(Cl)c3)c2F)CC1` [Example 44, 1-{4-[4-(3-Chloro-phenyl)-5-fluoro-benzothiazol-6-ylmethyl]-piperazin-1-yl}-ethanone], the IC50 at h4B1 lay in the range of 10 to 20 µM; against h4D7 it was 1 to 10 µM.

Consider `CCOC(=O)Nc1ccc(Cc2cc3scnc3c(-c3cccc(Cl)c3)c2F)cn1` [Example 40, {5-[4-(3-chloro-phenyl)-5-fluoro-benzothiazol-6-ylmethyl]-pyridin-2-yl}-carbamic acid ethyl ester], for which the IC50 at h4B1 was greater than 30 µM; against h4D7 it was less than 1 µM.

Regarding `Cc1nc2c(-c3cccc(Cl)c3)cc(Cc3ccc(NC(N)=O)cc3)cc2o1` [Example 24, N-(4-{[4-(3-chlorophenyl)-2-methyl-1,3-benzoxazol-6-yl]methyl}phenyl)urea], the half-maximal inhibitory concentration (IC50) on h4B1 and against h4D7 was less than 1 µM in each case.

As for `CS(=O)(=O)Nc1ccc(Cc2cc(-c3cccc(Cl)c3)c3nc(N)oc3c2)cc1` [Example 20, N-{4-[2-Amino-4-(3-chloro-phenyl)-benzooxazol-6-ylmethyl]-phenyl}-methanesulfonamide], the IC50 is 1 to 10 µM against h4B1 and less than 1 µM against h4D7.

`Nc1nc2c(-c3cccc(Br)c3)cc(Cc3ccc(F)cc3)cc2s1` [Example 13, 4-(3-bromophenyl)-6-(4-fluorobenzyl)-1,3-benzothiazol-2-amine]: the IC50 at h4B1 is 1 to 10 µM; against h4D7, less than 1 µM.

As for `Nc1nc2c(-c3ccc4nonc4c3)cc(Cc3ccc(F)cc3)cc2s1` [Example 3, 4-Benzol[1,2,5]oxadiazol-5-yl-6-(4-fluoro-benzyl)-benzothiazol-2-yl amine], the IC50 on h4B1 is 1 to 10 µM; against h4D7, less than 1 µM.

Consider `Nc1ccc(Cc2cc3sc(N)nc3c(-c3cccc([N+](=O)[O-])c3)c2O)cc1` [Example 15, 2-Amino-6-(4-amino-benzyl)-4-(3-nitro-phenyl)-benzothiazol-5-ol], for which the IC50 against h4B1 and on h4D7 was less than 1 µM in each case.

As for `Nc1ccc(Cc2cc(-c3cccc(Cl)c3)c3nc(N)oc3c2)cc1` [Example 32, 6-(4-aminobenzyl)-4-(3-chlorophenyl)-1,3-benzoxazol-2-amine], the IC50 at h4B1 and at h4D7 was less than 1 µM each time.
